Results on six compounds are retold here after patent US10874745B2, “Antimicrobial peptides and methods of treating gram-negative pathogens: polar and non-polar face analogs” (priority 2017, dated 2020).

The test system of series [1] is A. baumannii clinical isolates. The series is described as follows: MIC, microtiter dilution in Mueller Hinton medium. Format: cell-based. To be noted: geometric mean, 7 clinical isolates of A. baumannii.
From the text: (§2) Gram-Negative Bacterial Strains used in this Study: All the A. baumannii strains used in this study were 1) obtained from the collection of Dr. Anthony A. Campagnari at the University of Buffalo and originally isolated from different patients and organs/tissues (strain 649, blood; strain 689, groin; strain 759, gluteus; strain 884, axilla; strain 985, pleural fluid); 2) were purchased from the American Type Culture Collection (ATCC, Manassas, Va., USA) (strain ATCC 17978, fatal meningitis; and strain ATCC 19606, urine); 3) obtained from MERCK (M89941, M89949, M89951, M89952, M89953, M89955 and M89963). These seven A. baumannii strains were resistant to polymyxin B and polymyxin E (Colistin).
(§3) Measurement of Antimicrobial Activity (MIC): The minimal inhibitory concentration (MIC) is defined as the lowest peptide concentration that inhibited bacterial growth. MICs were measured by a standard microtiter dilution method in Mueller Hinton (MH) medium. Briefly, cells were grown overnight at 37° C. in MH broth and were diluted in the same medium. […] The plates were incubated at 37° C. for 24 h, and the MICs were determined.
The subject of series [2] is A. baumannii strains resistant to Polymyxin B and Colistin. The format is cell-based. To be noted: geometric mean, 7 A. baumannii strains resistant to polymyxin B and colistin.
From the text: as §2, §3
Series [3] has as its system clinical isolates of Pseudomonas aeruginosa. The format is cell-based. To be noted: geometric mean, 6 clinical isolates of P. aeruginosa.
Method: as §3
Another series can be described thus: Hemolytic activity. Format: cell-based, human. Conditions: 1% human erythrocytes (red blood cells), pH 7.4. The protocol: (§1) Hemoglobin release was determined spectrophotometrically at 570 nm. […] […] […] With the peptides used in this study the inventors used the HC30/MIC ratio value to calculate the therapeutic index.
In the next series the test system is human red blood cells. Put plainly: Hemolytic activity. The format is cell-based. To be noted: for HC50: 50% hemolysis of human red blood cells after 18 hours at 37° C. As for the experimental part: as §1
Series [4] in a line: RP-HPLC retention time as measure of overall peptide hydrophobicity. Format: physicochemical. To be noted: Zorbax SB-C8, 0.5% B/min from 2% B, 30° C. (Table 3). The source says: Retention behavior in RP-HPLC is an excellent method to represent overall peptide hydrophobicity. Retention times of peptides are highly sensitive to the conformational status of the peptides upon interaction with the hydrophobic environment of the column matrix (Jiang, Z., et al., Chem. Biol. Drug Des. 2011; Chen, Y., et al., J. Peptide Research 2002, supra). The non-polar faces of amphipathic alpha-helical and amphipathic cyclic beta-sheet peptides represent a preferred binding domain for interaction with the hydrophobic matrix of the reversed-phase column (Zhou, N. E., et al., Peptide Research 1990, 3:8-20). In this study, the observed peptide hydrophobicity was determined by RP-HPLC retention time as described in the methods section and are relative hydrophobicities because they are dependent on the TFA concentration and organic solvent in the mobile phase, gradient rate, temperature, flow rate and the column used. […]

The mark [5] stands for this setting: 50% hemolysis of human red blood cells after 18 hours at 37° C., read-out: HC50.

Several values for one entry are separate records, joined by “and”; a condition that tells them apart may be missing. Equal values may be shown once. Read-outs that look alike come from different tables or passages of the source. Non-standard residues stand in square brackets, D forms with d. Residues, ends and D or L forms follow the SMILES beside them. dDab = NCC[C@@H](N)C(=O)O

As to `CC(=O)N[C@H](C)C(=O)N[C@H](CC(C)C)C(=O)N[C@H](CCCCN)C(=O)N[C@H](CCCCN)C(=O)N[C@H](CC(C)C)C(=O)N[C@H](CC(C)C)C(=O)N[C@H](CCCCN)C(=O)N[C@@H](C(=O)N[C@H](CC(C)C)C(=O)N[C@H](CO)C(=O)N[C@H](CCCCN)C(=O)N[C@H](C)C(=O)N[C@H](CCCNC(=N)N)C(=O)N[C@H](C)C(=O)N[C@H](C)C(=O)N[C@H](CCCNC(=N)N)C(=O)N[C@H](CC(C)C)C(=O)N[C@H](CCCCN)C(=O)N[C@@H](C(=O)N[C@H](CC(C)C)C(=O)N[C@H](CC(C)C)C(=O)N[C@H](CCCCN)C(=O)N[C@H](C)C(=O)N[C@H](CC(C)C)C(=O)N[C@H](CO)C(=O)N[C@H](CCCCN)C(N)=O)[C@H](C)O)[C@H](C)O` [D41(Arg13/Arg16)], the MICGM turned out to be 0.6 µM in series [1], 0.8 µM in series [2] and 1.1 µM in series [3]. Also, the HC50 (commonly the concentration that lyses half of the red blood cells) at 18 h in the series “Hemolytic activity” (setting [5]) is 7.2 µM and 21 µg/mL. This compound also gave an HC50 in the series on human red blood cells of 7.2 µM.
Turning to `CC(=O)N[C@H](C)C(=O)N[C@H](CC(C)C)C(=O)N[C@H](CCCCN)C(=O)N[C@H](CCCCN)C(=O)N[C@H](CC(C)C)C(=O)N[C@H](CC(C)C)C(=O)N[C@H](CCCCN)C(=O)N[C@@H](C(=O)N[C@H](CC(C)C)C(=O)N[C@H](CO)C(=O)N[C@H](CCCCN)C(=O)N[C@H](C)C(=O)N[C@H](CCN)C(=O)N[C@H](C)C(=O)N[C@H](C)C(=O)N[C@H](CCN)C(=O)N[C@H](CC(C)C)C(=O)N[C@H](CCCCN)C(=O)N[C@@H](C(=O)N[C@H](CC(C)C)C(=O)N[C@H](CC(C)C)C(=O)N[C@H](CCCCN)C(=O)N[C@H](C)C(=O)N[C@H](CC(C)C)C(=O)N[C@H](CO)C(=O)N[C@H](CCCCN)C(N)=O)[C@H](C)O)[C@H](C)O` [D41(Dbu13/Dbu16)] (Ac-[dA][dL][dK][dK][dL][dL][dK][dT][dL][dS][dK][dA][dDab][dA][dA][dDab][dL][dK][dT][dL][dL][dK][dA][dL][dS][dK]-NH2; N-terminus and C-terminus assumed), the results for the MICGM in series [1], in series [2] and in series [3] were 0.6 µM, 0.5 µM and 0.8 µM, respectively. For the same compound, in the series “Hemolytic activity” (setting [5]), the HC50 at 18 h was 24.3 µM and 68 µg/mL. The compound also gave a 50% haemolytic concentration (HC50) with human red blood cells of 24.3 µM.
In the case of `CC(=O)N[C@H](C)C(=O)N[C@H](CC(C)C)C(=O)N[C@H](CCCCN)C(=O)N[C@H](CCCCN)C(=O)N[C@H](CC(C)C)C(=O)N[C@H](CC(C)C)C(=O)N[C@H](CCCCN)C(=O)N[C@@H](C(=O)N[C@H](CC(C)C)C(=O)N[C@H](CO)C(=O)N[C@H](CCCCN)C(=O)N[C@H](C)C(=O)N[C@H](CN)C(=O)N[C@H](C)C(=O)N[C@H](C)C(=O)N[C@H](CN)C(=O)N[C@H](CC(C)C)C(=O)N[C@H](CCCCN)C(=O)N[C@@H](C(=O)N[C@H](CC(C)C)C(=O)N[C@H](CC(C)C)C(=O)N[C@H](CCCCN)C(=O)N[C@H](C)C(=O)N[C@H](CC(C)C)C(=O)N[C@H](CO)C(=O)N[C@H](CCCCN)C(N)=O)[C@H](C)O)[C@H](C)O` [D41(Dpr13/Dpr16)], the MICGM in series [1] amounted to 0.6 µM; in series [2] it was 0.7 µM; in series [3], 1.3 µM. The HC50 at 18 h in the series “Hemolytic activity” (setting [5]) was 22.6 µM and 62.5 µg/mL. The HC50 in the series on human red blood cells was found to be 22.6 µM.
Turning to `CC(=O)N[C@H](C)C(=O)N[C@H](CC(C)C)C(=O)N[C@H](CCCCN)C(=O)N[C@H](CCCCN)C(=O)N[C@H](CC(C)C)C(=O)N[C@H](CC(C)C)C(=O)N[C@H](CCCCN)C(=O)N[C@@H](C(=O)N[C@H](CC(C)C)C(=O)N[C@H](CO)C(=O)N[C@H](CCCCN)C(=O)N[C@H](C)C(=O)N[C@H](CCCCN)C(=O)N[C@H](C)C(=O)N[C@H](C)C(=O)N[C@H](CCCCN)C(=O)N[C@H](CC(C)C)C(=O)N[C@H](CCCCN)C(=O)N[C@@H](C(=O)N[C@H](CC(C)C)C(=O)N[C@H](CC(C)C)C(=O)N[C@H](CCCCN)C(=O)N[C@H](C)C(=O)N[C@H](CC(C)C)C(=O)N[C@H](CO)C(=O)N[C@H](CCCCN)C(N)=O)[C@H](C)O)[C@H](C)O` [D41(Lys13/Lys16)], the MICGM is 0.4 µM in series [1], 0.4 µM in series [2] and 0.8 µM in series [3]. In addition, the HC50 at 18 h in “Hemolytic activity” (setting [5]) was 13.7 µM and 39 µg/mL. This compound also showed an HC50 in the series on human red blood cells of 13.7 µM.
On to `CC(=O)N[C@H](C)C(=O)N[C@H](CC(C)C)C(=O)N[C@H](CCCCN)C(=O)N[C@H](CCCCN)C(=O)N[C@H](CC(C)C)C(=O)N[C@H](CC(C)C)C(=O)N[C@H](CCCCN)C(=O)N[C@@H](C(=O)N[C@H](CC(C)C)C(=O)N[C@H](CO)C(=O)N[C@H](CCCCN)C(=O)N[C@H](C)C(=O)N[C@H](CCCN)C(=O)N[C@H](C)C(=O)N[C@H](C)C(=O)N[C@H](CCCN)C(=O)N[C@H](CC(C)C)C(=O)N[C@H](CCCCN)C(=O)N[C@@H](C(=O)N[C@H](CC(C)C)C(=O)N[C@H](CC(C)C)C(=O)N[C@H](CCCCN)C(=O)N[C@H](C)C(=O)N[C@H](CC(C)C)C(=O)N[C@H](CO)C(=O)N[C@H](CCCCN)C(N)=O)[C@H](C)O)[C@H](C)O` [D41(Orn13/Orn16)], for which the figures for the MICGM in series [1], in series [2] and in series [3] were 0.8 µM, 0.6 µM and 1.0 µM, respectively. Moreover, in the series “Hemolytic activity” (setting [5]), the HC50 at 18 h was 34 µM and 96 µg/mL. This compound displayed an HC50 in the series on human red blood cells of 34.0 µM.
For the compound `CC(=O)N[C@H](CCCCN)C(=O)N[C@H](CC(C)C)C(=O)N[C@H](CCN)C(=O)N[C@H](CO)C(=O)N[C@H](CC(C)C)C(=O)N[C@H](CC(C)C)C(=O)N[C@H](CCN)C(=O)N[C@@H](C(=O)N[C@H](CC(C)C)C(=O)N[C@H](CO)C(=O)N[C@H](C)C(=O)N[C@H](C)C(=O)N[C@H](CCCCN)C(=O)N[C@H](CCN)C(=O)N[C@H](CCN)C(=O)N[C@H](CCCCN)C(=O)N[C@H](CC(C)C)C(=O)N[C@H](C)C(=O)N[C@@H](C(=O)N[C@H](CC(C)C)C(=O)N[C@H](CC(C)C)C(=O)N[C@H](CCN)C(=O)N[C@H](C)C(=O)N[C@H](CC(C)C)C(=O)N[C@H](CO)C(=O)N[C@H](CO)C(N)=O)[C@H](C)O)[C@H](C)O` [Peptide D104, Ac-KL(Dbu)SLL(Dbu)TLSAAK(Dbu)(Dbu)KLATLL(Dbu)ALSS-amide] (Ac-[dK][dL][dDab][dS][dL][dL][dDab][dT][dL][dS][dA][dA][dK][dDab][dDab][dK][dL][dA][dT][dL][dL][dDab][dA][dL][dS][dS]-NH2), the “tR, relative hydrophilicity/hydrophobicity” value in series [4] worked out at 59.2 min. Moreover, in the series “Hemolytic activity” (human), the HC50 at 18 h is > 4000 µg/mL and > 1.49 mM. The “Hemolysis of human red blood cells, in words” value in the series with human red blood cells was “basically no hemolysis”.
